{"source": "ChEMBL document CHEMBL4414592", "about": "“Aryl-fluorosulfate-based Lysine Covalent Pan-Inhibitors of Apoptosis Protein (IAP) Antagonists with Cellular Efficacy” (J Med Chem, 2019)", "key": {"[1]": {"assay": "Stability in aqueous buffer at 100 uM to 2 mM by 1H 1D NMR spectroscopy", "assay_type": "physicochemical"}, "[2]": {"assay": "Solubility in pH 7.5 aqueous buffer at 25 degC by 1H 1D NMR spectroscopy", "assay_type": "physicochemical"}, "[3]": {"test_system": "SK-MEL-28", "assay": "Induction of apoptosis in human SK-MEL-28 cells assessed as increase in caspase-3/7 activity at […] incubated for 36 hrs by IncuCyteS3 caspase-3/7 fluorescence-based apoptosis assay", "assay_type": "functional, cell-based"}, "[4]": {"test_system": "A549", "assay": "Induction of apoptosis in human A549 cells assessed as increase in caspase-3/7 activity at […] incubated for 36 hrs by IncuCyteS3 caspase-3/7 fluorescence-based apoptosis assay", "assay_type": "functional, cell-based"}, "[5]": {"test_system": "SK-MEL-28", "assay": "Induction of apoptosis in human SK-MEL-28 cells assessed as increase in caspase-3/7 activity at […] incubated for 36 hrs in presence of 1 ng/mL TNFlpha by IncuCyteS3 caspase-3/7 fluorescence-based apoptosis assay", "assay_type": "functional, cell-based"}, "[6]": {"test_system": "A549", "assay": "Induction of apoptosis in human A549 cells assessed as increase in caspase-3/7 activity at […] incubated for 36 hrs in presence of 1 ng/mL TNFlpha by IncuCyteS3 caspase-3/7 fluorescence-based apoptosis assay", "assay_type": "functional, cell-based"}, "[7]": {"test_system": "SK-MEL-28", "assay": "Cytotoxicity in human SK-MEL-28 cells assessed as reduction in cell viability in presence of 1 ng/mL TNFlpha measured every 3 hrs for 4 days by IncuCyteS3 live-cell analysis system based assay", "assay_type": "functional"}, "[8]": {"test_system": "A549", "assay": "Cytotoxicity in human A549 cells assessed as reduction in cell viability in presence of 1 ng/mL TNFlpha measured every 3 hrs for 4 days by IncuCyteS3 live-cell analysis system based assay", "assay_type": "functional"}, "[9]": {"target": "Baculoviral IAP repeat-containing protein 2 (Homo sapiens) (UniProt Q13490)", "sequence (Q13490 whole entry, the tested form may be a part)": "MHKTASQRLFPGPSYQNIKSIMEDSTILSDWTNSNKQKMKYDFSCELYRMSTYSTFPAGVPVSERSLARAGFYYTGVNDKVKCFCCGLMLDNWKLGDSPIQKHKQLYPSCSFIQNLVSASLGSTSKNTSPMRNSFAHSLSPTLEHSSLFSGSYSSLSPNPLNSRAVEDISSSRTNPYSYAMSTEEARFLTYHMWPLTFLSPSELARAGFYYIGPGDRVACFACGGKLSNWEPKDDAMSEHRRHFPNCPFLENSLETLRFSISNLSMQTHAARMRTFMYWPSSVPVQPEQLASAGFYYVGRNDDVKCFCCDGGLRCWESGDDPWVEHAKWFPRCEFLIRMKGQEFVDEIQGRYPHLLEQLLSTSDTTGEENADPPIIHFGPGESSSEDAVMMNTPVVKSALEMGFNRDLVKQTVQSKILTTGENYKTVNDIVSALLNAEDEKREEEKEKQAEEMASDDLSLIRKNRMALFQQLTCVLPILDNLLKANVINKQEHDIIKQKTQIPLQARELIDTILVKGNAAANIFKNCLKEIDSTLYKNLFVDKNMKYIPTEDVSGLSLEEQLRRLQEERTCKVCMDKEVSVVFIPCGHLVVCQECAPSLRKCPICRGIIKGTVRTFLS", "assay": "Binding affinity to N-terminal 6x-His-tagged recombinant human cIAP1-BIR3 (258 to 363 residues) expressed in Escherichia coli assessed as increase in […] domain mass at protein-compound ratio of 1:10 incubated for 6 hrs at 25 degC by LC-MS analysis relative to control"}, "[10]": {"assay": "Stability in mouse plasma assessed as half life at 200 uM at 37 degC incubated up to 120 mins by mass spectrometry", "assay_type": "ADME, cell-free", "conditions": "2 h"}, "[11]": {"target": "T1, Baculoviral IAP repeat-containing protein 3 (Homo sapiens, UniProt Q13489)", "T1 sequence (Q13489 whole entry, the tested form may be a part)": "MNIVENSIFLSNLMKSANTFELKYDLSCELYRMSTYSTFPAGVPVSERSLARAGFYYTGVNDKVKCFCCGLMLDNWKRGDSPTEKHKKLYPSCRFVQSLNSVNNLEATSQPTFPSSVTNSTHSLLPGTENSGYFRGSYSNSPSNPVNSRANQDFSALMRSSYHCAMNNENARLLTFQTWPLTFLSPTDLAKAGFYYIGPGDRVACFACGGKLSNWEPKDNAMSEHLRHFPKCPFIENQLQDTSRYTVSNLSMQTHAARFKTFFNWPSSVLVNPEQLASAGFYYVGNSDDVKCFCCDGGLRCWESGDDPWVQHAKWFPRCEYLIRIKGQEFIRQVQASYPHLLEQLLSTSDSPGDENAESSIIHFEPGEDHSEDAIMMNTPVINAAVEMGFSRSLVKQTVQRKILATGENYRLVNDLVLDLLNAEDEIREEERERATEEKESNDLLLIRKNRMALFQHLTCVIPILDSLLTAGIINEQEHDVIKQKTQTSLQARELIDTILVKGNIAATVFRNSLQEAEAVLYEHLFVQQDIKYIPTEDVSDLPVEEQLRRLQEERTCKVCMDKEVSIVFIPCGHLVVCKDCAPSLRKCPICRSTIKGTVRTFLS", "assay": "Inhibition of N-terminal 6x-His-tagged recombinant human cIAP2-BIR3 (244 to 349 residues) expressed in Escherichia coli incubated for 2 hrs without 6 hrs pre-incubation with enzyme by biotinylated AVPI peptide based DELFIA"}, "[12]": {"target": "T1, Baculoviral IAP repeat-containing protein 3", "assay": "Inhibition of N-terminal 6x-His-tagged recombinant human cIAP2-BIR3 (244 to 349 residues) expressed in Escherichia coli incubated for 2 hrs after 6 hrs pre-incubation with enzyme by biotinylated AVPI peptide based DELFIA"}, "[13]": {"target": "T2, E3 ubiquitin-protein ligase XIAP (Homo sapiens, UniProt P98170)", "T2 sequence (P98170 whole entry)": "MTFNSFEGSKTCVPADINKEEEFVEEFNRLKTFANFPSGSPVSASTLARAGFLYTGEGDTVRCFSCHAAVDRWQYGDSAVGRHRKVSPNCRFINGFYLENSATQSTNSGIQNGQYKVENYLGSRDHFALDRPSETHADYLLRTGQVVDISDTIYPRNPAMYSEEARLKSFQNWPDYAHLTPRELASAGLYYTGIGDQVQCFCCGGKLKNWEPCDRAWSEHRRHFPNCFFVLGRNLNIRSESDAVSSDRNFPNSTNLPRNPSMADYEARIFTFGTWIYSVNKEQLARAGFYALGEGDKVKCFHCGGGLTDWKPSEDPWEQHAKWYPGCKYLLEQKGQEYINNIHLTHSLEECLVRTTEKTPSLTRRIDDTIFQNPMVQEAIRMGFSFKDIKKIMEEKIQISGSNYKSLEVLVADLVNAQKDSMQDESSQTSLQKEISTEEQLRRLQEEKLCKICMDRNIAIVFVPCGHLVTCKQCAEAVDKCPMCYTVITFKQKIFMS"}, "[14]": {"target": "T2, E3 ubiquitin-protein ligase XIAP", "remark": "listed apart in the source"}, "[15]": {"target": "T2, E3 ubiquitin-protein ligase XIAP", "remark": "listed apart in the source"}, "[16]": {"target": "T2, E3 ubiquitin-protein ligase XIAP", "remark": "listed apart in the source"}}, "note": "Activity calls are given as the source filed them. No cut-off for these calls is given here.", "data": [{"smiles": "CN[C@@H](C)C(=O)N[C@H](C(=O)N1CCC[C@H]1C(=O)N[C@@H]1CCc2c(OS(=O)(=O)F)cccc21)C1CCCCC1", "values": [{"measurement": "Stability", "setting": "[1]", "result": "Stable"}, {"measurement": "solubility", "setting": "[2]", "result": "<= 2 mM"}, {"measurement": "Activity", "setting": "[3]", "result": "inactive"}, {"measurement": "Activity", "setting": "[4]", "result": "inactive"}, {"measurement": "Activity", "setting": "[5]", "result": "Dose-dependent effect"}, {"measurement": "Activity", "setting": "[6]", "result": "Dose-dependent effect"}, {"measurement": "Activity", "setting": "[7]", "result": "Dose-dependent effect"}, {"measurement": "Activity", "setting": "[8]", "result": "Dose-dependent effect"}]}, {"smiles": "CN[C@@H](C)C(=O)N[C@@H](Cc1ccc(OS(=O)(=O)F)cc1)C(=O)N1CCC[C@H]1C(=O)N[C@@H]1CCc2c(F)cccc21", "values": [{"measurement": "Activity", "setting": "[3]", "result": "inactive"}, {"measurement": "Activity", "setting": "[4]", "result": "inactive"}, {"measurement": "Activity", "setting": "[5]", "result": "Dose-dependent effect"}, {"measurement": "Activity", "setting": "[6]", "result": "Dose-dependent effect"}, {"measurement": "Activity", "setting": "[7]", "result": "Dose-dependent effect"}, {"measurement": "Activity", "setting": "[8]", "result": "Dose-dependent effect"}, {"measurement": "Activity", "setting": "[9]", "result": "inactive"}]}, {"smiles": "CN[C@@H](C)C(=O)NC(Cc1cc(C)c(C(F)(F)F)cc1F)C(=O)N1CCC[C@H]1C(=O)N[C@@H]1CCc2c(OS(=O)(=O)F)cccc21", "note": "(mixture of isomers)", "values": [{"measurement": "solubility", "setting": "[2]", "result": "<= 1 mM"}, {"measurement": "Stability", "setting": "[10]", "result": "Stable"}, {"measurement": "Activity", "setting": "[3]", "result": "inactive"}, {"measurement": "Activity", "setting": "[4]", "result": "inactive"}, {"measurement": "Activity", "setting": "[5]", "result": "Dose-dependent effect"}, {"measurement": "Activity", "setting": "[6]", "result": "Dose-dependent effect"}, {"measurement": "Activity", "setting": "[7]", "result": "Dose-dependent effect"}, {"measurement": "Activity", "setting": "[8]", "result": "Dose-dependent effect"}]}, {"smiles": "CN[C@@H](C)C(=O)N[C@H](C(=O)N1CCC[C@H]1c1nc(C(=O)c2ccc(F)cc2)cs1)C1CCCCC1", "note": "[LCL-161]", "values": [{"measurement": "Stability", "setting": "[10]", "result": "Stable"}, {"measurement": "Activity", "setting": "[3]", "result": "inactive"}, {"measurement": "Activity", "setting": "[4]", "result": "inactive"}, {"measurement": "Activity", "setting": "[5]", "result": "Dose-dependent effect"}, {"measurement": "Activity", "setting": "[6]", "result": "Dose-dependent effect"}, {"measurement": "Activity", "setting": "[7]", "result": "Dose-dependent effect"}, {"measurement": "Activity", "setting": "[8]", "result": "Dose-dependent effect"}]}, {"smiles": "CN[C@@H](C)C(=O)N[C@H]1CN(C(=O)CC(C)C)CC[C@H]2CC[C@@H](C(=O)NC(c3ccccc3)c3ccccc3)N2C1=O", "note": "[XEVINAPANT]", "values": [{"measurement": "IC50", "setting": "[11]", "result": 44, "unit": "nM"}, {"measurement": "IC50", "setting": "[12]", "result": 133, "unit": "nM"}, {"measurement": "Stability", "setting": "[10]", "result": "Stable"}, {"measurement": "Activity", "setting": "[3]", "result": "inactive"}, {"measurement": "Activity", "setting": "[4]", "result": "inactive"}, {"measurement": "Activity", "setting": "[5]", "result": "Dose-dependent effect"}, {"measurement": "Activity", "setting": "[6]", "result": "Dose-dependent effect"}, {"measurement": "Activity", "setting": "[7]", "result": "Dose-dependent effect"}, {"measurement": "Activity", "setting": "[8]", "result": "Dose-dependent effect"}, {"measurement": "IC50", "setting": "[13]", "result": 42, "unit": "nM"}, {"measurement": "IC50", "setting": "[14]", "result": 47.8, "unit": "nM"}, {"measurement": "ΔTm", "setting": "[15]", "result": 17, "unit": "°C"}, {"measurement": "ΔTm", "setting": "[16]", "result": 19, "unit": "°C"}]}]}
